Results taken from ChEMBL document CHEMBL5614417, “Discovery of AMPs from random peptides via deep learning-based model and biological activity validation” (Eur J Med Chem, 2024).
Where a SMILES comes first, the peptide text is derived from it.

Key:
Type in all cases: functional
Staphylococcus aureus [1] = assay: Induction of resistance development against Staphylococcus aureus assessed as fold increase in MIC after 21 passages
Staphylococcus aureus [2] = assay: Antibacterial activity against Staphylococcus aureus ATCC 25923 incubated for 18 hrs by visual inspection method
[3] = test system: Staphylococcus epidermidis; assay: Antibacterial activity against Staphylococcus epidermidis ATCC 12228 incubated for 18 hrs by visual inspection method
Bacillus subtilis = assay: Antibacterial activity against Bacillus subtilis ATCC 23857 incubated for 18 hrs by visual inspection method
Escherichia coli = assay: Antibacterial activity against Escherichia coli ATCC 25922 incubated for 18 hrs by visual inspection method
Acinetobacter baumannii = assay: Antibacterial activity against Acinetobacter baumannii ATCC 19606 incubated for 18 hrs by visual inspection method
Klebsiella pneumoniae = assay: Antibacterial activity against Klebsiella pneumoniae ATCC 700603 incubated for 18 hrs by visual inspection method

MIC (Staphylococcus aureus [2]) [µg/mL] | MIC [3] [µg/mL] | MIC (Bacillus subtilis) [µg/mL] | MIC (Escherichia coli) [µg/mL] | MIC (Acinetobacter baumannii) [µg/mL] | MIC (Klebsiella pneumoniae) [µg/mL] | Compound | fold change (FC) (Staphylococcus aureus [1])
 |  |  |  |  |  | O=C(O)c1cn(C2CC2)c2cc(N3CCNCC3)c(F)cc2c1=O | 16
> 60 | > 60 | > 60 | > 60 | > 60 | > 60 | CC[C@H](C)[C@H](NC(=O)[C@H](CCCNC(=N)N)NC(=O)[C@H](Cc1c[nH]c2ccccc12)NC(=O)[C@@H](NC(=O)[C@H](Cc1c[nH]cn1)NC(=O)[C@H](Cc1c[nH]c2ccccc12)NC(=O)[C@@H](N)Cc1c[nH]c2ccccc12)[C@@H](C)CC)C(=O)N[C@@H](CO)C(=O)N[C@@H](CCSC)C(=O)N[C@@H](Cc1c[nH]c2ccccc12)C(=O)N[C@@H](CCSC)C(=O)N[C@@H](CS)C(=O)NCC(N)=O (H-WWHIWRISMWMCG-NH2) | 
> 60 | > 60 | > 60 | > 60 | > 60 | > 60 | CC[C@H](C)[C@H](N)C(=O)N[C@H](C(=O)N[C@@H](Cc1ccccc1)C(=O)N[C@@H](CC(C)C)C(=O)N[C@H](C(=O)N[C@@H](CO)C(=O)NCC(=O)N[C@@H](Cc1ccccc1)C(=O)N[C@@H](CCCCN)C(=O)N[C@@H](CS)C(=O)N[C@@H](Cc1ccccc1)C(=O)N[C@@H](CCCCN)C(=O)NCC(N)=O)[C@@H](C)CC)C(C)C (H-IVFLISGFKCFKG-NH2) | 
> 60 | > 60 | > 60 | > 60 | > 60 | > 60 | CC[C@H](C)[C@H](NC(=O)[C@H](C)NC(=O)[C@H](Cc1c[nH]c2ccccc12)NC(=O)[C@H](CCCCN)NC(=O)[C@H](C)NC(=O)CNC(=O)[C@@H](NC(=O)[C@@H](N)CO)[C@@H](C)CC)C(=O)N[C@@H](Cc1c[nH]c2ccccc12)C(=O)N[C@@H](Cc1c[nH]c2ccccc12)C(=O)N[C@@H](Cc1c[nH]c2ccccc12)C(=O)N[C@@H](CCSC)C(=O)N[C@H](C(N)=O)C(C)C (H-SIGAKWAIWWWMV-NH2) | 
